Laboratory results from US11286242B2 (priority 2018, dated 2022).

Tested on: Pyricularia oryzae
Assay: microbe, parasite or virus in culture
Assay type: cell-based
Conditions: 168 h, read-out: control compared to the untreated check

| Structure (SMILES) | inhibition of growth at 300 ppm [%] |
| --- | --- |
| COc1cccc(S(C)(=O)=Nc2ccc(-c3noc(C(F)(F)F)n3)cc2)c1 (centres unmarked) [Compound 106, (3-methoxyphenyl)(methyl)((4-(5-(trifluoromethyl)-1,2,4-oxadiazol-3-yl)phenyl)imino)-λ^6-sulfanone] | > 70 |
| CS(=O)(=Nc1ccc(-c2noc(C(F)(F)F)n2)cc1F)c1ccccc1F (centres unmarked) [Compound 165, ((2-fluoro-4-(5-(trifluoromethyl)-1,2,4-oxadiazol-3-yl)phenyl)imino)(2-fluorophenyl)(methyl)-λ^6-sulfanone] | > 70 |

Tested on: Phakopsora pachyrhizi
Assay: Phakopsora pachyrhizi test in soybean, preventive spray
Assay type: in vivo
Conditions: preventive spray on soybean plants, inoculated one day after treatment, greenhouse 25° C., 90% relative humidity, read-out: control (efficacy, disease severity rating) compared to the untreated check
Protocol: Example 8: Phakopsora pachyrhizi Test in Soybean
Compounds were dissolved in 2% DMSO/Acetone & then mixed with water to the calibrated spray volume of 50 mL and poured into the spray bottles for further applications.
To test the preventive activity of compounds, healthy young soybean plants raised in the greenhouse were sprayed with active compound preparation at the stated application rates inside the spray cabinets using hallowcone nozzles. One day after treatment, the plants were inoculated with spore suspension containing 2.1×10^6 Phakopsora pachyrhizi inoculum. The inoculated plants were then kept in greenhouse chamber at 25° C. temperature & 90% relative humidity for disease expression.
A visual assessment of compound's performance was carried out by rating the disease severity (0-100% scale) on treated plants on 3, 7, 10 & 15 days after application. Efficacy (% control) of the compounds was calculated by comparing the disease rating in the treatment with the one of the untreated control. The sprayed plants were also assessed for compound's plant compatibility by recording symptoms like necrosis, chlorosis & stunting.

| Structure (SMILES) | pest or weed control at 500 ppm [%] |
| --- | --- |
| CS(=O)(=NC(=O)c1ccc(-c2noc(C(F)(F)F)n2)cc1)c1ccc(Cl)cc1 (centres unmarked) [Compound 1, N-((4-chlorophenyl)(methyl)(oxo)-λ^6-sulfanylidene)-4-(5-(trifluoromethyl)-1,2,4-oxadiazol-3-yl)benzamide] | > 90 |
| CS(=O)(=NC(=O)c1ccc(-c2noc(C(F)(F)F)n2)cc1)c1ccc(F)cc1 (centres unmarked) [Compound 6, N-((4-fluorophenyl)(methyl)(oxo)-λ^6-sulfanylidene)-4-(5-(trifluoromethyl)-1,2,4-oxadiazol-3-yl)benzamide] | > 90 |
| CS(=O)(=NC(=O)c1ccc(-c2noc(C(F)(F)F)n2)cc1)c1ccccc1 (centres unmarked) [Compound 9, N-(methyl(oxo)(phenyl)-λ^6-sulfanylidene)-4-(5-(trifluoromethyl)-1,2,4-oxadiazol-3-yl)benzamide] | > 90 |
| CS(=O)(Cc1c(F)cccc1F)=Nc1ccc(-c2noc(C(F)(F)F)n2)cc1 (centres unmarked) [Compound 85, (2,6-difluorobenzyl)(methyl)((4-(5-(trifluoromethyl)-1,2,4-oxadiazol-3-yl)phenyl)imino)-λ^6-sulfanone] | > 90 |
| COc1ccc(S(C)(=O)=NC(=O)c2ccc(-c3noc(C(F)(F)F)n3)cc2)cc1 (centres unmarked) [Compound 10, N-((4-methoxyphenyl)(methyl)(oxo)-λ^6-sulfanylidene)-4-(5-(trifluoromethyl)-1,2,4-oxadiazol-3-yl)benzamide] | > 90 |
| Cc1ccccc1CS(C)(=O)=NC(=O)c1ccc(-c2noc(C(F)(F)F)n2)cc1 (centres unmarked) [Compound 40, N-(methyl(2-methylbenzyl)(oxo)-λ^6-sulfaneylidene)-4-(5-(trifluoromethyl)-1,2,4-oxadiazol-3-yl)benzamide] | > 90 |
| CS(=O)(=NC(=O)c1ccc(-c2noc(C(F)(F)F)n2)cc1)c1ccc(F)c(F)c1 (centres unmarked) [Compound 57, N-((3,4-difluorophenyl)(methyl)(oxo)-λ^6-sulfaneylidene)-4-(5-(trifluoromethyl)-1,2,4-oxadiazol-3-yl)benzamide] | > 90 |
| Cc1ccc(S(C)(=O)=NC(=O)c2ccc(-c3noc(C(F)(F)F)n3)cc2)cc1 (centres unmarked) [Compound 30, N-(methyl(oxo)(p-tolyl)-λ^6-sulfaneylidene)-4-(5-(trifluoromethyl)-1,2,4-oxadiazol-3-yl)benzamide] | > 90 |
| CS(=O)(Cc1ccc(Br)cc1)=Nc1ccc(-c2noc(C(F)(F)F)n2)cc1 (centres unmarked) [Compound 92, (4-bromobenzyl)(methyl)((4-(5-(trifluoromethyl)-1,2,4-oxadiazol-3-yl)phenyl)imino)-λ^6-sulfanone] | > 90 |
| CS(=O)(=Nc1ccc(-c2noc(C(F)(F)F)n2)cc1)c1ccccc1F (centres unmarked) [Compound 12, (2-fluorophenyl)(methyl)((4-(5-(trifluoromethyl)-1,2,4-oxadiazol-3-yl)phenyl)imino)-λ^6-sulfanone] | > 90 |
| CS(=O)(=NC(=O)c1ccc(-c2noc(C(F)(F)F)n2)cc1)c1c(F)cccc1F (centres unmarked) [Compound 36, N-((2,6-difluorophenyl)(methyl)(oxo)-λ^6-sulfaneylidene)-4-(5-(trifluoromethyl)-1,2,4-oxadiazol-3-yl)benzamide] | > 90 |
| CS(=O)(Cc1c(Cl)cccc1Cl)=NC(=O)c1ccc(-c2noc(C(F)(F)F)n2)cc1 (centres unmarked) [Compound 51, N-((2,6-dichlorobenzyl)(methyl)(oxo)-λ^6-sulfaneylidene)-4-(5-(trifluoromethyl)-1,2,4-oxadiazol-3-yl)benzamide] | > 90 |
| CS(=O)(=Nc1ccc(-c2noc(C(F)(F)F)n2)nc1)c1ccccn1 (centres unmarked) [Compound 110, methyl(pyridin-2-yl)((6-(5-(trifluoromethyl)-1,2,4-oxadiazol-3-yl)pyridin-3-yl)imino)-λ^6-sulfanone] | > 90 |
| CS(=O)(=NC(=O)c1ccc(-c2noc(C(F)(F)F)n2)cc1)c1ccncc1 (centres unmarked) [Compound 4, N-(methyl(oxo)(pyridin-4-yl)-λ^6-sulfanylidene)-4-(5-(trifluoromethyl)-1,2,4-oxadiazol-3-yl)benzamide] | > 90 |
| CS(=O)(Cc1ccc(C#N)cc1)=NC(=O)c1ccc(-c2noc(C(F)(F)F)n2)cc1 (centres unmarked) [Compound 31, N-((4-cyanobenzyl)(methyl)(oxo)-λ^6-sulfaneylidene)-4-(5-(trifluoromethyl)-1,2,4-oxadiazol-3-yl)benzamide] | > 90 |
| CS(=O)(Cc1c(Cl)cccc1Cl)=Nc1ccc(-c2noc(C(F)(F)F)n2)cc1 (centres unmarked) [Compound 91, (2,6-dichlorobenzyl)(methyl)((4-(5-(trifluoromethyl)-1,2,4-oxadiazol-3-yl)phenyl)imino)-λ^6-sulfanone] | > 90 |
| CS(=O)(=NCc1ccc(-c2noc(C(F)(F)F)n2)cc1)c1ccc(C(F)(F)F)cc1 (centres unmarked) [Compound 25, methyl((4-(5-(trifluoromethyl)-1,2,4-oxadiazol-3-yl)benzyl)imino)(4-(trifluoromethyl)phenyl)-λ^6-sulfanone] | > 90 |
| CS(=O)(=Nc1ccc(-c2noc(C(F)(F)F)n2)cc1)c1ccc(OC(F)(F)F)cc1 (centres unmarked) [Compound 21, methyl(4-(trifluoromethoxy)phenyl)((4-(5-(trifluoromethyl)-1,2,4-oxadiazol-3-yl)phenyl)imino)-λ^6-sulfanone] | > 90 |
| CS(=O)(=NCc1ccc(-c2noc(C(F)(F)F)n2)cc1)c1ccc(Cl)cc1 (centres unmarked) [Compound 28, (4-chlorophenyl)(methyl)((4-(5-(trifluoromethyl)-1,2,4-oxadiazol-3-yl)benzyl)imino)-λ^6-sulfanone] | > 90 |
| Cc1nnc(S(C)(=O)=NC(=O)c2ccc(-c3noc(C(F)(F)F)n3)cc2)s1 (centres unmarked) [Compound 54, N-(methyl(5-methyl-1,3,4-thiadiazol-2-yl)(oxo)-λ^6-sulfaneylidene)-4-(5-(trifluoromethyl)-1,2,4-oxadiazol-3-yl)benzamide] | > 90 |
| CS(=O)(Cc1ccc(C(F)(F)F)cc1)=NC(=O)c1ccc(-c2noc(C(F)(F)F)n2)cc1 (centres unmarked) [Compound 50, N-(methyl(oxo)(4-(trifluoromethyl)benzyl)-λ^6-sulfaneylidene)-4-(5-(trifluoromethyl)-1,2,4-oxadiazol-3-yl)benzamide] | > 90 |
| O=C(N=S1(=O)CCOCC1)c1ccc(-c2noc(C(F)(F)F)n2)cc1 [Compound 58, N-(4-oxido-1,4λ^6-oxathian-4-ylidene)-4-(5-(trifluoromethyl)-1,2,4-oxadiazol-3-yl)benzamide] | > 90 |
| CS(=O)(=NC(=O)c1ccc(-c2noc(C(F)(F)F)n2)cc1)c1ccc(C#N)cc1 (centres unmarked) [Compound 42, N-((4-cyanophenyl)(methyl)(oxo)-λ^6-sulfaneylidene)-4-(5-(trifluoromethyl)-1,2,4-oxadiazol-3-yl)benzamide] | > 90 |
| CS(=O)(=NCc1ccc(-c2noc(C(F)(F)F)n2)cc1)c1ccccc1 (centres unmarked) [Compound 26, methyl(phenyl)((4-(5-(trifluoromethyl)-1,2,4-oxadiazol-3-yl)benzyl)imino)-λ^6-sulfanone] | > 90 |
| CS(=O)(=NC(=O)c1ccc(-c2noc(C(F)(F)F)n2)cc1)c1cccc(F)c1 (centres unmarked) [Compound 5, N-((3-fluorophenyl)(methyl)(oxo)-λ^6-sulfanylidene)-4-(5-(trifluoromethyl)-1,2,4-oxadiazol-3-yl)benzamide] | > 90 |
| CS(=O)(=NC(=O)c1ccc(-c2noc(C(F)(F)F)n2)cc1)c1ccc(C(F)(F)F)cc1 (centres unmarked) [Compound 7, N-(methyl(oxo)(4-(trifluoromethyl)phenyl)-λ^6-sulfanylidene)-4-(5-(trifluoromethyl)-1,2,4-oxadiazol-3-yl)benzamide] | > 90 |
| CS(=O)(Cc1ccc(F)cc1)=Nc1ccc(-c2noc(C(F)(F)F)n2)cc1 (centres unmarked) [Compound 89, (4-fluorobenzyl)(methyl)((4-(5-(trifluoromethyl)-1,2,4-oxadiazol-3-yl)phenyl)imino)-λ^6-sulfanone] | > 90 |
| Cc1csc(S(C)(=O)=NC(=O)c2ccc(-c3noc(C(F)(F)F)n3)cc2)n1 (centres unmarked) [Compound 53, N-(methyl(4-methylthiazol-2-yl)(oxo)-λ^6-sulfaneylidene)-4-(5-(trifluoromethyl)-1,2,4-oxadiazol-3-yl)benzamide] | > 90 |
| CS(=O)(Cc1ccccc1F)=NC(=O)c1ccc(-c2noc(C(F)(F)F)n2)cc1 (centres unmarked) [Compound 38, N-((2-fluorobenzyl)(methyl)(oxo)-λ^6-sulfaneylidene)-4-(5-(trifluoromethyl)-1,2,4-oxadiazol-3-yl)benzamide] | > 90 |
| CS(=O)(=NC(=O)c1ccc(-c2noc(C(F)(F)F)n2)cc1)c1ccccn1 (centres unmarked) [Compound 2, N-(methyl(oxo)(pyridin-2-yl)-λ^6-sulfanylidene)-4-(5-(trifluoromethyl)-1,2,4-oxadiazol-3-yl)benzamide] | > 90 |
